Test results reported in publication PMC6916368, “Cell‐Based Optimization of Covalent Reversible Ketoamide Inhibitors Bridging the Unprimed to the Primed Site of the Proteasome β5 Subunit” (Chemmedchem, 2019).

Columns and labels:
Danio rerio embryos = assay: Danio rerio embryo toxicity assay (not dechorionated); assay type: in vivo
Protocol: Danio rerio embryo toxicity assay. Fish keeping protocols are approved by the Darmstadt administrative authority and documented. All fish were treated humanely. […] Embryos were decollated into separate wells containing a total volume of 200 μL and the inhibitor at the given concentration.

in vitro = assay type: cell-based; settings: human
Protocol: (§1) Remarkably, in THP‐1 cells the initial cytotoxicity is increasing for 3 compared to 27 until 14 h treatment (9‐fold) but is approaching to the end of the assay.
(§2) Time‐dependent determination of cell viability. For the determination of time‐dependent cytotoxic activity 5.000 cells per well were plated in a white 384 well‐plate in RPMI‐1640 medium supplemented with 0.1 % FBS. Real‐Time Glo MT cell viability assay (Promega) and inhibitor were added to the final concentration and luminescence was determined using a Tecan M1000 microplate reader at the time points indicated (SI chapter 2b, Figure S9–S17, Table S2).

[1] = target: T1, β2c subunit of isolated human 20S proteasome (Homo sapiens, UniProt Q99436); assay: Proteasome inhibition assay (20 S Proteasome Assay Kit, Bz‐VGR‐AMC); assay type: biochemical; settings: c = 1 µM, n=1; read-out: Inhibition cCP β2
T1 construct: purchased Enzo Life Sciences
Summary of the method: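 Isolated 20S proteasome (200 ng/well) was preincubated 30 min with inhibitor, then Bz-VGR-AMC (100 μM final) was added for 60 min and fluorescence read. Single-point residual activity was taken at 100 nM or 1 μM; IC50 was fitted from duplicates, mean of three independent experiments.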

THP‐1 cells [2] = assay type: cell-based
Protocol: as §1, §2

[3] = target: T2, β1c subunit of isolated human 20S proteasome (Homo sapiens, UniProt P28072); assay: Proteasome inhibition assay (20 S Proteasome Assay Kit, Z‐LLE‐AMC); assay type: biochemical; settings: c = 1 µM, n=1; read-out: Inhibition cCP β1
T2 construct: purchased Enzo Life Sciences
Summary of the method: (§3)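 Isolated human 20S proteasome (200 ng/well) preincubated 30 min with inhibitor, then 100 μM final Suc-LLVY-AMC (β5c, β5i) or Z-LLE-AMC (β1c) added for 60 min; fluorescence read. Residual activity at 100 nM final (n=3; β5c, β5i) or 1 μM (n=1, incl. β1c). IC50s: technical duplicates, mean of three experiments.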

THP‐1 cells [4] = assay: Cell viability endpoint assay (Celltiter Blue, 72 h); assay type: cell-based; settings: Homo sapiens, mean±SD from two independent experiments
Summary of the method: (§4)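 Proteasome inhibitors were tested at 1 nM to 10 μM final on 50.000 cells/well in RPMI-1640 with 0.1 % FBS, plated overnight beforehand, at 37 °C and 5 % CO2. Reagent was incubated 120 minutes before the fluorescence read. IC50 came from a sigmoidal fit of technical triplicates, as the mean of two independent experiments.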

MV4‐11 cells = assay: as above; assay type: cell-based; settings: Homo sapiens, MV4-11, mean±SD from two independent experiments
Summary of the method: as §4

Jurkat cells = assay: as above; assay type: cell-based; settings: Homo sapiens, mean±SD from two independent experiments
Summary of the method: as §4

[5] = target: T3, β5i subunit of isolated human 20S proteasome (Homo sapiens, UniProt P28062); assay: Proteasome inhibition assay (20 S Proteasome Assay Kit, Suc‐LLVY‐AMC); assay type: biochemical; settings: for inhibition at 1 µM: c = 1 µM, n=1, read-out: Inhibition iCP β5; for inhibition at 0.1 µM: c=100 nM, read-out: Rel. Inhibition β5i; for IC50: purified proteasome
T3 construct: purchased Enzo Life Sciences
Summary of the method: as §3

[6] = target: T4, β5c subunit of isolated human 20S proteasome (Homo sapiens, UniProt P28074); assay: as above; assay type: biochemical; settings: for inhibition at 1 µM: c = 1 µM, n=1, read-out: Inhibition cCP β5; for inhibition at 0.1 µM: c=100 nM, read-out: Rel. Inhibition β5c; for IC50: purified proteasome; for Fold‐IC50 β5i/β5c: selectivity β5c over β5i
T4 construct: purchased Enzo Life Sciences
Summary of the method: as §3

[7] = tested on: proteasome in MV4‐11 cells; assay: In‐cell determination of proteasome IC50 (conversion of substrate 30); assay type: cell-based; settings: MV4-11, without pre‐incubation
Protocol: In‐cell determination of proteasome IC 50. […] Substrate was added to give a final concentration of 30 μM and substrate conversion was detected by fluorescence measurement over 100 min (assay validation) or 60 min (inhibition assays) using a Tecan M1000 microplate reader. Rate of fluorescence change over time was calculated, rates for negative (no‐cell) control was subtracted and normalized to positive control (no inhibitor).

| Compound | Survival of embryos (not dechorionated) (Danio rerio embryos; 1 µM, 24 h) [%] | Survival of embryos (not dechorionated) (Danio rerio embryos; 1 µM, 48 h) [%] | Survival of embryos (not dechorionated) (Danio rerio embryos; 1 µM, 72 h) [%] | Survival of embryos (not dechorionated) (Danio rerio embryos; 1 µM, 96 h) [%] | Survival of embryos (not dechorionated) (Danio rerio embryos; 5 µM, 24 h) [%] | Survival of embryos (not dechorionated) (Danio rerio embryos; 5 µM, 48 h) [%] | Survival of embryos (not dechorionated) (Danio rerio embryos; 5 µM, 72 h) [%] | Survival of embryos (not dechorionated) (Danio rerio embryos; 5 µM, 96 h) [%] | Survival of embryos (not dechorionated) (Danio rerio embryos; 10 µM, 24 h) [%] | Survival of embryos (not dechorionated) (Danio rerio embryos; 10 µM, 48 h) [%] | Survival of embryos (not dechorionated) (Danio rerio embryos; 10 µM, 72 h) [%] | Survival of embryos (not dechorionated) (Danio rerio embryos; 10 µM, 96 h) [%] | Survival of embryos (not dechorionated) (Danio rerio embryos; 25 µM, 24 h) [%] | Survival of embryos (not dechorionated) (Danio rerio embryos; 25 µM, 48 h) [%] | Survival of embryos (not dechorionated) (Danio rerio embryos; 25 µM, 72 h) [%] | Survival of embryos (not dechorionated) (Danio rerio embryos; 25 µM, 96 h) [%] | inhibition at 1 µM [1] [%] | inhibition at 1 µM [3] [%] | IC50 (THP‐1 cells [4]) [nM] | IC50 (MV4‐11 cells) [nM] | further results |
| --- | --- | --- | --- | --- | --- | --- | --- | --- | --- | --- | --- | --- | --- | --- | --- | --- | --- | --- | --- | --- | --- |
| CC(C)C[C@H](NC(=O)[C@H](CCc1ccccc1)NC(=O)CN1CCOCC1)C(=O)N[C@@H](Cc1ccccc1)C(=O)N[C@@H](CC(C)C)C(=O)[C@@]1(C)CO1 [Carfilzomib 3, Carfilzomib] | 100 | 100 | 100 | 100 | 100 | 100 | 100 | 100 | 100 | 100 | 100 | 100 | 100 | 100 | 100 | 100 | 37 | -18 | 135 ± 39 | 3.6 ± 1.8 | IC50 at 13 h (in vitro): 50 to 400 nM; cytotoxicity of 3 compared to 27 (THP‐1 cells [2]): 9 fold; IC50 (Jurkat cells): 14 ± 3 nM; inhibition at 1 µM [5]: 91%; inhibition at 0.1 µM [5]: 43%; inhibition at 1 µM [6]: 96%; inhibition at 0.1 µM [6]: 86% |
| CC(C)C[C@H](NC(=O)OCc1ccccc1)C(=O)N[C@@H](CC(C)C)C(=O)N[C@@H](CC(C)C)C(=O)C(=O)Nc1cccc(Oc2ccccc2)c1 [Compound 9, Benzyl‐((S)‐4‐methyl‐1‐(((S)‐4‐methyl‐1‐(((S)‐5‐methyl‐1,2‐dioxo‐1‐((3‐phenoxyphenyl)‐amino)hexan‐3‐yl)amino)‐1‐oxopentan‐2‐yl)amino)‐1‐oxopentan‐2‐yl)carbamate] | 100 | 100 | 100 | 100 | 100 | 100 | 100 | 100 | 100 | 100 | 100 | 100 | 100 | 100 | 100 | 100 | 9 | 0 | 30 ± 10 | 18 ± 3 | IC50 (Jurkat cells): 24 ± 4 nM; inhibition at 1 µM [5]: 31%; inhibition at 0.1 µM [5]: 23%; IC50 [5]: 170 nM; inhibition at 1 µM [6]: 81%; inhibition at 0.1 µM [6]: 56%; IC50 [6]: 66 nM; Fold‐IC50 β5i/β5c [6]: 2.6 |
| Cc1ccc(NC(=O)C(=O)C(CC(C)C)NC(=O)C(CC(C)C)NC(=O)C(CC(C)C)NC(=O)OCc2ccccc2)c(C)c1 (stereo not drawn) [Compound 7, BSc4999] | 100 | 100 | 100 | 100 | 100 | 100 | 100 | 100 | 100 | 100 | 100 | 100 | 80 | 80 | 80 | 80 | 9 | -26 | 24 ± 0.1 | 19 ± 3 | IC50 (Jurkat cells): 30 ± 0.3 nM; fold more potent than 9 (in-cell conversion of 30) [7]: 4 fold; inhibition at 1 µM [5]: 74%; inhibition at 0.1 µM [5]: 33%; IC50 [5]: 204 nM; inhibition at 1 µM [6]: 92%; inhibition at 0.1 µM [6]: 64%; IC50 [6]: 48 nM; Fold‐IC50 β5i/β5c [6]: 4.3 |
